In patent US20100240709A1, “Sulfoximine Derivatives as p38 MAP Kinase Inhibitors” (priority 2005, published 2010):

molecular target: p38 MAP kinase (Homo sapiens, UniProt Q16539); assay: p-38 MAPK Enzyme assay (in vitro ELISA, ATF-2 substrate); format: biochemical; conditions: ELISA detection of phosphorylated ATF-2
From the text: The compounds were screened using an in vitro ELISA assay for p38 MAP kinase activity. Activated p38 MAP kinase during the course of its biological function phosphorylates its substrates. The assay was based on the detection of a phosphorylated p38 MAP kinase substrate using ATF-2 as the biological substrate. More the activity of the p38 MAP kinase inhibitor in the reaction mixture less will be the amount of active p38 MAP kinase available to phosphorylate ATF-2. So, lower OD value will indicate the higher inhibition of p38 MAP kinase by the specific p38 MAP kinase inhibitor. The quantitation of phosphorylated ATF-2 at varying concentrations of p38 MAP kinase inhibitor was used to determine the IC50 by fitting the results to a logistic dose-response program (Graphpad Prism, CA). IC50 was defined as the concentration of compound required to achieve 50% inhibition of p38 MAP kinase activity.

Chain of p38 MAP kinase (Q16539 whole entry): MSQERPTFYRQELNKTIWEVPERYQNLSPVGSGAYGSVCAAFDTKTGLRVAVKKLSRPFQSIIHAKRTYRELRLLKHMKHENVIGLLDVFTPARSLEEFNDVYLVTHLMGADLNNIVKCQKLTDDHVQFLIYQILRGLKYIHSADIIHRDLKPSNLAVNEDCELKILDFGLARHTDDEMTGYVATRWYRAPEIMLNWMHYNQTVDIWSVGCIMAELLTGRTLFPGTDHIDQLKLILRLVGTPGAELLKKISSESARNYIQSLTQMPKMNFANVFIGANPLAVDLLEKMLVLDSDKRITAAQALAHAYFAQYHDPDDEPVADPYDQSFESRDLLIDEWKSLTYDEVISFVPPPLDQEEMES

IC50 [µM]	Compound
3.9	CC(C)S(=O)(=Nc1cc(-c2scnc2-c2cccc(F)c2)ccn1)c1ccccc1 (stereo not drawn) [Example 72]
5.42	CCc1nc(-c2cccc(C)c2)c(-c2ccnc(N=S(C)(=O)c3cccc(F)c3)c2)s1 (stereo not drawn) [Example 9, S-(3-Fluorophenyl)-S-methyl-N-[4-(2-ethyl-4-m-tolyl-thiazol-5-yl)-pyridin-2-yl]-sulfoximine]
5.01	CCc1nc(-c2ccccc2)c(-c2ccnc(N=S(=O)(c3ccccc3)C(C)C)c2)s1 (stereo not drawn) [Example 22]
7.5	CC(C)S(=O)(=Nc1cc(-c2scnc2-c2ccc(F)cc2)ccn1)c1ccccc1 (stereo not drawn) [Example 74]
15	CCc1nc(-c2cccc(C)c2)c(-c2ccnc(N=S3(=O)CCCCC3)c2)s1 [Example 18, 1-Imino-N-[4-(2-ethyl-4-(3-methylphenyl)-1,3-thiazol-5-yl)-pyridine-2-yl]-tetrahydro-2H-thiopyran-1-oxide]
1.2	CCc1nc(-c2cccc(C)c2)c(-c2ccnc(N=S(=O)(C3CCCCC3)C3CCCCC3)c2)s1 [Example 2, S,S-dicyclohexyl-N-[4-(2-ethyl-4-m-tolyl-thiazol-5-yl)-pyridine-2-yl]sulfoximine]
6.95	CCc1nc(-c2cccc(C)c2)c(-c2ccnc(N=S(C)(=O)c3ccccc3C)c2)s1 (stereo not drawn) [Example 12, S-(2-Methylphenyl)-S-methyl-N-[4-(2-ethyl-4-m-tolyl-thiazol-5-yl)-pyridin-2-yl]-sulfoximine]
1.4	CCc1nc(-c2cccc(C)c2)c(-c2ccnc(N=[S@@](C)(=O)c3ccccc3)c2)s1 [Example 5, (+)-(S)-methyl-S-phenyl-N-[4-(2-ethyl-4-(3-methylphenyl)-1,3-thiazol-5-yl)-pyridine-2-yl]-sulfoximine]
6.6	CCc1nc(-c2ccc(F)c(F)c2)c(-c2ccnc(N=S(C)(=O)c3ccc(F)cc3)c2)s1 (stereo not drawn) [Example 59, S-Methyl-S-(4-fluorophenyl)-N-{-4-[2-ethyl-4-(3,4-difluorophenyl)-thiazol-5-yl]pyridin-2-yl}-sulfoximine]
1.1	CCc1nc(-c2cccc(C)c2)c(-c2ccnc(N=S(C)(=O)c3ccc(OC)cc3)c2)s1 (stereo not drawn) [Example 3, S-Methyl-S-4-methoxyphenyl-N-[4-(2-ethyl-4-m-tolyl-thiazol-5-yl)-pyridine-2-yl]-sulfoximine]
1.4	CCc1nc(-c2ccc(F)cc2)c(-c2ccnc(N=S(C)(=O)c3ccc(F)cc3)c2)s1 (stereo not drawn) [Example 41, S-Methyl-S-4-fluoro-phenyl-N-[4-(2-ethyl-4-(4-fluoro-phenyl)-1,3-thiazol-5-yl)-pyridine-2-yl]-sulfoximine]
10	CCc1nc(-c2cccc(C)c2)c(-c2ccnc(N=S(C)(=O)c3ccc(F)c(Cl)c3)c2)s1 (stereo not drawn) [Example 17, S-Methyl-S-(3-chloro-4-fluoro-phenyl)-N-[4-(2-ethyl-4-(3-methylphenyl)-1,3-thiazol-5-yl)-pyridine-2-yl]-sulfoximine]
1.12	CCc1nc(-c2cccc(C)c2)c(-c2ccnc(N=S(C)(=O)c3ccccc3)c2)s1 (stereo not drawn) [Example 4, S-Methyl-S-phenyl-N-[4-(2-ethyl-4-(3-methylphenyl)-1,3-thiazol-5-yl)-pyridine-2-yl]-sulfoximine]
0.15	CCc1nc(-c2cccc(C)c2)c(-c2ccnc(N=S(C)(=O)c3ccccc3)c2)s1 (single isomer, unassigned; (-)) [Example 6, (−)-S-methyl-S-phenyl-N-[4-(2-ethyl-4-(3-methylphenyl)-1,3-thiazol-5-yl)-pyridine-2-yl]-sulfoximine]
3.8	CCc1nc(-c2cccc(C)c2)c(-c2ccnc(N=S(C)(=O)c3ccc(F)cc3)c2)s1 (stereo not drawn) [Example 7, S-Methyl-S-(4-fluorophenyl)-N-[4-(2-ethyl-4-(3-methylphenyl)-1,3-thiazol-5-yl)-pyridine-2-yl]-sulfoximine]
1.35	CCc1nc(-c2ccc(F)cc2)c(-c2ccnc(N=S(=O)(c3ccccc3)c3ccccc3)c2)s1 [Example 45, S,S-Diphenyl-N-[4-(2-ethyl-4-(4-fluorophenyl)-thiazol-5-yl)-pyridin-2-yl]-sulfoximine]
4.8	CCc1nc(-c2cccc(C(F)(F)F)c2)c(-c2ccnc(N=S(C)(=O)c3ccccc3)c2)s1 (stereo not drawn) [Example 54, S-Methyl-S-phenyl-N-{4-[2-ethyl-4-(3-trifluoromethylphenyl)-thiazol-5-yl]-pyridin-2-yl}sulfoximine]
6.5	Cc1cccc(-c2nc(-c3ccc([S+](C)[O-])cc3)sc2-c2ccnc(N=S(C)(=O)c3ccccc3)c2)c1 (stereo not drawn) [Example 57, S-Methyl-S-phenyl-N-{-4-[2-(4-methylsulfinyl-phenyl)-4-m-tolyl-thiazol-5-yl]-pyridin-2-yl}-sulfoximine]
14.6	CCc1nc(-c2ccc(F)cc2)c(-c2ccnc(N=S(=O)(c3ccccc3)C(C)C)c2)s1 (stereo not drawn) [Example 35, S-Isopropyl-S-phenyl-N-{-4-[2-ethyl-4-(4-fluoro-phenyl)-thiazol-5-yl]-pyridin-2-yl}-sulfoximine]
1.9	CCCCS(=O)(CCCC)=Nc1cc(-c2sc(CC)nc2-c2cccc(C)c2)ccn1 [Example 16, Di-n-butyl-N-[4-(2-ethyl-4-(3-methylphenyl)-1,3-thiazol-5-yl)-pyridine-2-yl]-sulfoximine]

IC50 [µM]	Compound
12.6	O=S(=Nc1cc(-c2scnc2-c2ccc(F)cc2)ccn1)(c1ccccc1)C1CCCC1 (stereo not drawn) [Example 75]
0.46	CCc1nc(-c2ccccc2)c(-c2ccnc(N=S(=O)(c3ccccc3)C3CCCC3)c2)s1 (stereo not drawn) [Example 28, S-Cyclopentyl-S-phenyl-N-[4-{2-ethyl-4-phenyl-thiazol-5-yl}-pyridine]-sulfoximine]
7.1	CCc1nc(-c2ccc(F)cc2)c(-c2ccnc(N=S(=O)(c3ccccc3)C3CCCC3)c2)s1 (stereo not drawn) [Example 42, S-Cyclopentyl-S-Phenyl-N-[4-(2-ethyl-4-(4-fluorophenyl)-1,3-thiazol-5-yl)-pyridine-2-yl]-sulfoximine]
2.6	CCc1nc(-c2ccccc2)c(-c2ccnc(N=S(=O)(c3ccccc3)C3CCCC3)c2)s1 (single isomer, unassigned; (-)) [Example 29]
10	CCc1nc(-c2ccccc2)c(-c2ccnc(N=S(=O)(c3ccccc3)c3ccccc3)c2)s1 [Example 32, S,S-diphenyl-N-[4-(2-ethyl-4-phenyl-thiazol-5-yl)-pyridin-2-yl]-sulfoximine]
6.6	CCc1nc(-c2ccccc2)c(-c2ccnc(N=S(C)(=O)c3ccc(OC)cc3)c2)s1 (stereo not drawn) [Example 23]
11.1	CCc1nc(-c2cccc(C)c2)c(-c2ccnc(N=S(C)(=O)c3cccc(C)c3)c2)s1 (stereo not drawn) [Example 10, S-(3-Methylphenyl)-S-methyl-N-[4-(2-ethyl-4-m-tolyl-thiazol-5-yl)-pyridin-2-yl]-sulfoximine]
5.93	CCc1nc(-c2ccc(F)cc2)c(-c2ccnc(N=S(=O)(c3ccccc3)C(C)C)c2)s1 (single isomer, unassigned; (+)) [Example 37, (+)-S-Isopropyl-S-phenyl-N-{4-[2-ethyl-4-(4-fluoro-phenyl)-thiazol-5-yl]-pyridin-2-yl}-sulfoximine]
3.9	CCc1nc(-c2ccc(F)cc2)c(-c2ccnc(N=S(C)(=O)c3ccccc3)c2)s1 (single isomer, unassigned; (-)) [Example 33, (−)-S-Methyl-S-phenyl-N-{-4-[2-ethyl-4-(4-fluoro-phenyl)-thiazol-5-yl]-pyridin-2-yl}-sulfoximine]
3.2	CCc1nc(-c2ccccc2)c(-c2ccnc(N=S(C)(=O)c3ccccc3)c2)s1 (stereo not drawn) [Example 31]
9.4	CCc1nc(-c2ccc(C)cc2)c(-c2ccnc(N=S(C)(=O)c3ccccc3)c2)s1 (stereo not drawn) [Example 64, S-Methyl-S-phenyl-N-{4-[2-ethyl-4-p-tolyl-thiazol-5-yl]-pyridin-2-yl}-sulfoximine]
4.4	CCc1nc(-c2cccc(F)c2)c(-c2ccnc(N=S(C)(=O)c3ccccc3)c2)s1 (stereo not drawn) [Example 50, S-Methyl-S-phenyl-N-[4-(2-ethyl-4-(3-fluoro-phenyl)-1,3-thiazol-5-yl)-pyridine-2-yl]-sulfoximine]
0.78	CCc1nc(-c2cccc(C)c2)c(-c2ccnc(N=S(=O)(c3ccccc3)C3CCCC3)c2)s1 (stereo not drawn) [Example 1, S-Cyclopentyl-S-phenyl-N-[4-(2-ethyl-4-(3-methylphenyl)-1,3-thiazol-5-yl)-pyridine-2-yl]-sulfoximine]
1.3	CCc1nc(-c2cccc(C)c2)c(-c2ccnc(N=S(=O)(c3ccccc3)C(C)C)c2)s1 (stereo not drawn) [Example 13, S-Isopropyl-S-phenyl-N-[4-(2-ethyl-4-(3-methylphenyl)-1,3-thiazol-5-yl)-pyridine-2-yl]-sulfoximine]
2.7	CCc1nc(-c2ccccc2)c(-c2ccnc(N=S(C)(=O)c3ccccc3)c2)s1 (single isomer, unassigned; (+)) [Example 21]
3.1	CCc1nc(-c2ccccc2)c(-c2ccnc(N=S(C)(=O)c3ccc(F)cc3)c2)s1 (stereo not drawn) [Example 27]
2.7	CCc1nc(-c2ccc(F)cc2)c(-c2ccnc(N=S(C)(=O)c3ccccc3)c2)s1 (single isomer, unassigned; (+)) [Example 40, (+)-S-Methyl-S-phenyl-N-[4-(2-ethyl-4-(4-fluoro-phenyl)-1,3-thiazol-5-yl)-pyridine-2-yl]-sulfoximine]
1	CCc1nc(-c2ccc(F)c(F)c2)c(-c2ccnc(N=S(C)(=O)c3ccccc3)c2)s1 (stereo not drawn) [Example 58, S-Methyl-S-phenyl-N-{4-[2-ethyl-4-(3,4-difluorophenyl)-thiazol-5-yl]pyridin-2-yl}-sulfoximine]
0.8	CCc1nc(-c2ccccc2)c(-c2ccnc(N=S(C)(=O)c3ccccc3)c2)s1 (single isomer, unassigned; (-)) [Example 20]
